# Data: PubChem BioAssay AID288 (DTP/NCI, 2004)
# “And” between values parts separate entries of the source, which are not always exact repeats. Identical values can stand only once. Records with an inconclusive call do not appear.
# Tested on: BDF1 mice, M5076 sarcoma s.c., survival/tumor T/C
# Assay: NCI In Vivo Anticancer Drug Screen. Data for tumor model Sarcoma M5076 (subcutaneous) in B6D2F1 (BDF1) mice
# Protocol: The antitumor activity of compounds was measured in mice bearing transplantable tumors. Survival or tumor size were measured and the results are expressed as the measurement made in the treated group (T) divided by the measurement made in the vehicle treated control group (C). The tumor model used in this assay is Sarcoma M5076 (subcutaneous) in B6D2F1 (BDF1) mice
# [1] = endpoint: median survival time, dose: 50.0 mg/kg/injection, schedule: Q01DX009 (ip), vehicle: saline with Tween-80, higher = longer survival
# [2] = endpoint: median tumor weight (est.), dose: 50.0 mg/kg/injection, schedule: Q01DX009 (ip), vehicle: saline with Tween-80, higher = larger tumour
# [3] = endpoint: mean tumor weight, dose: 75.0 mg/kg/injection, schedule: Q02DX011 (ip), vehicle: saline, higher = larger tumour
# [4] = endpoint: mean tumor weight, dose: 150.0 mg/kg/injection, schedule: Q02DX011 (ip), vehicle: saline, higher = larger tumour
# [5] = endpoint: median tumor weight (est.), dose: 150.0 mg/kg/injection, schedule: Q02DX011 (ip), vehicle: saline, higher = larger tumour
# [6] = endpoint: median survival time, dose: 100.0 mg/kg/injection, schedule: Q01DX009 (ip), vehicle: saline with Tween-80, higher = longer survival
# [7] = endpoint: median survival time, dose: 200.0 mg/kg/injection, schedule: Q01DX009 (ip), vehicle: saline with Tween-80, higher = longer survival
# [8] = endpoint: median tumor weight (est.), dose: 100.0 mg/kg/injection, schedule: Q01DX009 (ip), vehicle: saline with Tween-80, higher = larger tumour
# [9] = endpoint: median tumor weight (est.), dose: 200.0 mg/kg/injection, schedule: Q01DX009 (ip), vehicle: saline with Tween-80, higher = larger tumour
smiles,measurement,setting,value
Cc1ccc(S(=O)(=O)N/N=C/C(Br)=C(/Br)C(=O)O)cc1,T/C,"endpoint: median survival time, dose: 0.62 mg/kg/injection, schedule: Q04DX003 (ip), vehicle: saline, higher = longer survival",99 % of control
same,T/C,"endpoint: median survival time, dose: 1.25 mg/kg/injection, schedule: Q04DX003 (ip), vehicle: saline, higher = longer survival",101 % of control
same,T/C,"endpoint: median survival time, dose: 2.5 mg/kg/injection, schedule: Q04DX003 (ip), vehicle: saline, higher = longer survival",99 % of control and 96 % of control
same,T/C,"endpoint: median survival time, dose: 5.0 mg/kg/injection, schedule: Q04DX003 (ip), vehicle: saline, higher = longer survival",109 % of control and 92 % of control
same,T/C,"endpoint: median survival time, dose: 7.5 mg/kg/injection, schedule: Q04DX003 (ip), vehicle: saline, higher = longer survival",83 % of control
same,T/C,"endpoint: median survival time, dose: 11.3 mg/kg/injection, schedule: Q04DX003 (ip), vehicle: saline, higher = longer survival",88 % of control
O=C1CC(Cl)(CS(F)(F)(F)(F)F)O1 (centres undefined),T/C,[1],100 % of control
same,T/C,[2],56 % of control
O=C1c2c(O)ccc(O)c2C(=O)c2c(NCCNCCO)ccc(NCCNCCO)c21,T/C,"endpoint: median tumor weight (est.), dose: 0.25 mg/kg/injection, schedule: Q02DX011 (ip), vehicle: water, higher = larger tumour",97 % of control
same,T/C,"endpoint: median tumor weight (est.), dose: 1.0 mg/kg/injection, schedule: Q02DX011 (ip), vehicle: water, higher = larger tumour",31 % of control and 38 % of control
same,T/C,"endpoint: median tumor weight (est.), dose: 2.0 mg/kg/injection, schedule: Q02DX011 (ip), vehicle: water, higher = larger tumour",4 % of control
CC(C)[C@](O)(C(=O)OCC1=CC[N+]2([O-])CC[C@@H](O)[C@@H]12)[C@H](C)O (some centres undefined),T/C,[3],96 % of control
same,T/C,"endpoint: mean tumor weight, dose: 100.0 mg/kg/injection, schedule: Q02DX011 (ip), vehicle: saline, higher = larger tumour",53 % of control
same,T/C,[4],82 % of control
same,T/C,"endpoint: mean tumor weight, dose: 200.0 mg/kg/injection, schedule: Q02DX011 (ip), vehicle: saline, higher = larger tumour",37 % of control
same,T/C,"endpoint: mean tumor weight, dose: 300.0 mg/kg/injection, schedule: Q02DX011 (ip), vehicle: saline, higher = larger tumour",6 % of control
same,T/C,"endpoint: mean tumor weight, dose: 400.0 mg/kg/injection, schedule: Q02DX011 (ip), vehicle: saline, higher = larger tumour",13 % of control
same,T/C,"endpoint: median survival time, dose: 200.0 mg/kg/injection, schedule: Q01DX007 (ip), vehicle: saline, higher = longer survival",95 % of control
same,T/C,"endpoint: median survival time, dose: 400.0 mg/kg/injection, schedule: Q01DX007 (ip), vehicle: saline, higher = longer survival",117 % of control
same,T/C,"endpoint: median survival time, dose: 540.0 mg/kg/injection, schedule: Q04DX003 (ip), vehicle: saline, higher = longer survival",104 % of control
same,T/C,"endpoint: median survival time, dose: 800.0 mg/kg/injection, schedule: Q01DX007 (ip), vehicle: saline, higher = longer survival",110 % of control
same,T/C,"endpoint: median survival time, dose: 800.0 mg/kg/injection, schedule: Q04DX003 (ip), vehicle: saline, higher = longer survival",112 % of control
same,T/C,"endpoint: median survival time, dose: 1200.0 mg/kg/injection, schedule: Q04DX003 (ip), vehicle: saline, higher = longer survival",114 % of control
same,T/C,"endpoint: median tumor weight (est.), dose: 75.0 mg/kg/injection, schedule: Q02DX011 (ip), vehicle: saline, higher = larger tumour",89 % of control
same,T/C,"endpoint: median tumor weight (est.), dose: 100.0 mg/kg/injection, schedule: Q02DX011 (ip), vehicle: saline, higher = larger tumour",56 % of control
same,T/C,[5],82 % of control
same,T/C,"endpoint: median tumor weight (est.), dose: 200.0 mg/kg/injection, schedule: Q02DX011 (ip), vehicle: saline, higher = larger tumour",39 % of control
same,T/C,"endpoint: median tumor weight (est.), dose: 300.0 mg/kg/injection, schedule: Q02DX011 (ip), vehicle: saline, higher = larger tumour",3 % of control
same,T/C,"endpoint: median tumor weight (est.), dose: 400.0 mg/kg/injection, schedule: Q02DX011 (ip), vehicle: saline, higher = larger tumour",14 % of control
CCc1ccc(NC(=O)/C=C\C(=O)O)cc1,T/C,[1],86 % of control
same,T/C,[6],105 % of control
same,T/C,[7],91 % of control
same,T/C,[2],112 % of control
same,T/C,[8],85 % of control
same,T/C,[9],106 % of control
COC(=O)C[C@](O)(CCCC(C)(C)O)C(=O)O[C@@H]1C(OC)=C[C@]23CCCN2CCc2cc4c(cc2[C@H]13)OCO4,T/C,"endpoint: mean tumor weight, dose: 0.5 mg/kg/injection, schedule: Q02DX011 (ip), vehicle: saline, higher = larger tumour",114 % of control
same,T/C,"endpoint: mean tumor weight, dose: 2.0 mg/kg/injection, schedule: Q02DX011 (ip), vehicle: saline, higher = larger tumour",37 % of control
same,T/C,"endpoint: median tumor weight (est.), dose: 0.5 mg/kg/injection, schedule: Q02DX011 (ip), vehicle: saline, higher = larger tumour",77 % of control
same,T/C,"endpoint: median tumor weight (est.), dose: 2.0 mg/kg/injection, schedule: Q02DX011 (ip), vehicle: saline, higher = larger tumour",34 % of control
Nc1ncnc2c1ccn2C1OC(CO)C(O)C1O (centres undefined),T/C,"endpoint: mean tumor weight, dose: 0.75 mg/kg/injection, schedule: Q02DX011 (ip), vehicle: saline, higher = larger tumour",117 % of control
same,T/C,"endpoint: mean tumor weight, dose: 1.5 mg/kg/injection, schedule: Q02DX011 (ip), vehicle: saline, higher = larger tumour",101 % of control
same,T/C,"endpoint: median tumor weight (est.), dose: 0.38 mg/kg/injection, schedule: Q02DX011 (ip), vehicle: saline, higher = larger tumour",82 % of control
same,T/C,"endpoint: median tumor weight (est.), dose: 0.75 mg/kg/injection, schedule: Q02DX011 (ip), vehicle: saline, higher = larger tumour",168 % of control
same,T/C,"endpoint: median tumor weight (est.), dose: 1.5 mg/kg/injection, schedule: Q02DX011 (ip), vehicle: saline, higher = larger tumour",110 % of control
C[C@]12C=CC(=O)C=C1CC[C@@H]1[C@@H]2C(=O)C[C@@]2(C)[C@H]1CC[C@]2(O)C(=O)CO,T/C,"endpoint: mean tumor weight, dose: 12.5 mg/kg/injection, schedule: Q02DX011 (ip), vehicle: saline, higher = larger tumour",82 % of control
same,T/C,"endpoint: mean tumor weight, dose: 25.0 mg/kg/injection, schedule: Q02DX011 (ip), vehicle: saline, higher = larger tumour",52 % of control
same,T/C,"endpoint: mean tumor weight, dose: 50.0 mg/kg/injection, schedule: Q02DX011 (ip), vehicle: saline, higher = larger tumour",59 % of control
O=C(O)C1(C(=O)O)CCC1.[NH2-].[NH2-].[Pt+2],T/C,"endpoint: median survival time, dose: 6.25 mg/kg/injection, schedule: Q02DX030 (ip), vehicle: water, higher = longer survival",98 % of control
same,T/C,"endpoint: median survival time, dose: 17.0 mg/kg/injection, schedule: Q01DX009 (ip), vehicle: other, higher = longer survival",100 % of control
same,T/C,"endpoint: median survival time, dose: 25.0 mg/kg/injection, schedule: Q01DX009 (ip), vehicle: other, higher = longer survival",114 % of control
same,T/C,"endpoint: median survival time, dose: 25.0 mg/kg/injection, schedule: Q02DX030 (ip), vehicle: water, higher = longer survival",165 % of control
same,T/C,"endpoint: median survival time, dose: 25.92 mg/kg/injection, schedule: Q04DX005 (ip), vehicle: water, higher = longer survival",162 % of control
same,T/C,"endpoint: median survival time, dose: 38.0 mg/kg/injection, schedule: Q01DX009 (ip), vehicle: other, higher = longer survival",107 % of control
same,T/C,"endpoint: median survival time, dose: 43.2 mg/kg/injection, schedule: Q04DX005 (ip), vehicle: water, higher = longer survival",169 % of control
same,T/C,"endpoint: median survival time, dose: 50.0 mg/kg/injection, schedule: Q02DX030 (ip), vehicle: water, higher = longer survival",94 % of control
same,T/C,"endpoint: median survival time, dose: 72.0 mg/kg/injection, schedule: Q04DX005 (ip), vehicle: water, higher = longer survival",196 % of control
same,T/C,"endpoint: median tumor weight (est.), dose: 15.6 mg/kg/injection, schedule: Q04DX005 (ip), vehicle: water, higher = larger tumour",22 % of control
same,T/C,"endpoint: median tumor weight (est.), dose: 25.92 mg/kg/injection, schedule: Q04DX005 (ip), vehicle: water, higher = larger tumour",20 % of control
Nc1nc2c(c(=O)[nH]1)N(C=O)C(CNc1ccc(C(=O)N[C@@H](CCC(=O)O)C(=O)O)cc1)CN2 (some centres undefined),T/C,"endpoint: median survival time, dose: 50.0 mg/kg/injection, schedule: Q01DX009 (ip), vehicle: sodium bicarbonate, higher = longer survival",101 % of control
same,T/C,"endpoint: median survival time, dose: 100.0 mg/kg/injection, schedule: Q01DX009 (ip), vehicle: sodium bicarbonate, higher = longer survival",96 % of control
same,T/C,"endpoint: median survival time, dose: 200.0 mg/kg/injection, schedule: Q01DX009 (ip), vehicle: sodium bicarbonate, higher = longer survival",101 % of control
O=c1[nH]c(=O)n(C2CC(O)C(CO)O2)cc1C(F)(F)F (centres undefined),T/C,"endpoint: mean tumor weight, dose: 37.5 mg/kg/injection, schedule: Q02DX011 (ip), vehicle: saline, higher = larger tumour",87 % of control
same,T/C,[3],24 % of control
same,T/C,[4],6 % of control
same,T/C,"endpoint: median tumor weight (est.), dose: 37.5 mg/kg/injection, schedule: Q02DX011 (ip), vehicle: saline, higher = larger tumour",70 % of control and 90 % of control
same,T/C,[5],4 % of control
CS(=O)(=O)OCCCCOS(C)(=O)=O,T/C,"endpoint: mean tumor weight, dose: 15.0 mg/kg/injection, schedule: Q02DX011 (ip), vehicle: Klucel (hydroxypropylcellulose) (HPC), higher = larger tumour",56 % of control
CCOC(=O)c1ccc(N2C(=O)OC(C)(C)C2=O)cc1,T/C,[1],108 % of control
same,T/C,[6],115 % of control
same,T/C,[7],95 % of control
same,T/C,[2],99 % of control
same,T/C,[8],97 % of control
same,T/C,[9],80 % of control
Cc1cc(-c2ccc(NC(=O)Nc3cccc(F)c3)c(C)c2)ccc1NC(=O)Nc1cccc(F)c1,T/C,[1],110 % of control
same,T/C,[6],102 % of control
same,T/C,[7],104 % of control
same,T/C,[2],107 % of control
same,T/C,[8],84 % of control
same,T/C,[9],70 % of control
